Literature values as cited in article PMC9516332 (Frontiers in Oncology, 2022).
Like-named read-outs stand apart in the source and are kept apart here.

Columns and labels:
Details in all cases: cited from earlier work
[1] = molecular target: panel of 255 wild-type kinases (Homo sapiens, UniProt Q9UQM7)
[2] = molecular target: panel of 255 wild-type kinases (Homo sapiens, UniProt Q9Y463)
[3] = molecular target: panel of 255 wild-type kinases (Homo sapiens, UniProt Q7KZI7)
[4] = molecular target: panel of 255 wild-type kinases (Homo sapiens, UniProt Q15375)
[5] = molecular target: panel of 255 wild-type kinases (Homo sapiens, UniProt P17252)
[6] = molecular target: panel of 255 wild-type kinases (Homo sapiens, UniProt P16591)
[7] = molecular target: panel of 255 wild-type kinases (Homo sapiens, UniProt P00519)
[8] = molecular target: panel of 255 wild-type kinases (Homo sapiens, UniProt O75116)
[9] = molecular target: panel of 255 wild-type kinases (Homo sapiens, UniProt Q9UK32)
[10] = molecular target: T1, panel of 255 wild-type kinases (Homo sapiens, UniProt Q9NZJ5)
T1 sequence (Q9NZJ5 30-1116): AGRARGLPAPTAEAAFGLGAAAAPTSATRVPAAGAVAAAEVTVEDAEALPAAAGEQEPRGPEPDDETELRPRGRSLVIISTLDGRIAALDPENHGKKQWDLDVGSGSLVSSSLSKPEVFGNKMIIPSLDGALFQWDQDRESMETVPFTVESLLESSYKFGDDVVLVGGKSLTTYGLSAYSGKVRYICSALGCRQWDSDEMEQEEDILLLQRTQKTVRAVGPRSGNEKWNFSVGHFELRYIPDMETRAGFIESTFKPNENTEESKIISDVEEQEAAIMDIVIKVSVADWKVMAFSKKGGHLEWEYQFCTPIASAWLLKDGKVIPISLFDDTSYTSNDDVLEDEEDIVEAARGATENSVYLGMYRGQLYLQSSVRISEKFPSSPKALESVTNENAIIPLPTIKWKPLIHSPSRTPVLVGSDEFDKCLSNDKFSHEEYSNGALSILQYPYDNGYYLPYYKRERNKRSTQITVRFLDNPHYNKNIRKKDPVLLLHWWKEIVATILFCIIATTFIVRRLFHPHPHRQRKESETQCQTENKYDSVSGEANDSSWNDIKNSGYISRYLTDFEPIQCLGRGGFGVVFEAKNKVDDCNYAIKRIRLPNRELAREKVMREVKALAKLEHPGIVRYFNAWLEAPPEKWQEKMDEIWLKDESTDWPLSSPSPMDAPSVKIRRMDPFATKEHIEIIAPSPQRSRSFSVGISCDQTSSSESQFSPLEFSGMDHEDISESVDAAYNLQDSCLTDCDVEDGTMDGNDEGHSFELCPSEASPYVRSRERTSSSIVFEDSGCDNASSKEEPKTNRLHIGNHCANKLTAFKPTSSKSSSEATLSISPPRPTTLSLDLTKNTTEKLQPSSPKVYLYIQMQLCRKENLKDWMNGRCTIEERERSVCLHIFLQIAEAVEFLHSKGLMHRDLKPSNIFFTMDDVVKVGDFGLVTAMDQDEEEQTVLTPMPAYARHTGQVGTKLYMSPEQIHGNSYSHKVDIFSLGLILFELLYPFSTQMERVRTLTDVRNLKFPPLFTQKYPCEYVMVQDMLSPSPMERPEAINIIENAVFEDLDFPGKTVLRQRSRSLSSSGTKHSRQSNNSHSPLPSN

[11] = molecular target: panel of 255 wild-type kinases (Homo sapiens, UniProt P54646)
[12] = CaMK2α kinase assay, 1 µmol/L single concentration, ref DOI: 10.1158/1535-7163.MCT-18-0877
[13] = kinase DYRK1B, 1 µmol/L single concentration, ref DOI: 10.1158/1535-7163.MCT-18-0877
[14] = MARK2, 1 µmol/L single concentration, ref DOI: 10.1158/1535-7163.MCT-18-0877
[15] = kinase EPHA7, 1 µmol/L single concentration, ref DOI: 10.1158/1535-7163.MCT-18-0877
[16] = kinase PKCα, 1 µmol/L single concentration, ref DOI: 10.1158/1535-7163.MCT-18-0877
[17] = kinase FER, 1 µmol/L single concentration, ref DOI: 10.1158/1535-7163.MCT-18-0877
[18] = ABL kinase assay, 1 µmol/L single concentration, ref DOI: 10.1158/1535-7163.MCT-18-0877
[19] = kinase ROCK2, 1 µmol/L single concentration, ref DOI: 10.1158/1535-7163.MCT-18-0877
[20] = kinase RSK4, 1 µmol/L single concentration, ref DOI: 10.1158/1535-7163.MCT-18-0877
[21] = kinase PEK, 1 µmol/L single concentration, ref DOI: 10.1158/1535-7163.MCT-18-0877
[22] = AMPKα2/β1/γ1 kinase assay, 1 µmol/L single concentration, ref DOI: 10.1158/1535-7163.MCT-18-0877
[23] = CaMK2α kinase assay, 1 µmol/L single concentration, ref DOI: 10.1371/journal.pone.0092146
[24] = kinase DYRK1B, 1 µmol/L single concentration, ref DOI: 10.1371/journal.pone.0092146
[25] = MARK2, 1 µmol/L single concentration, ref DOI: 10.1371/journal.pone.0092146
[26] = kinase PKCα, 1 µmol/L single concentration, ref DOI: 10.1371/journal.pone.0092146
[27] = kinase FER, 1 µmol/L single concentration, ref DOI: 10.1371/journal.pone.0092146
[28] = kinase ROCK2, 1 µmol/L single concentration, ref DOI: 10.1371/journal.pone.0092146
[29] = kinase RSK4, 1 µmol/L single concentration, ref DOI: 10.1371/journal.pone.0092146
[30] = kinase PEK, 1 µmol/L single concentration, ref DOI: 10.1371/journal.pone.0092146
[31] = AMPKα2/β1/γ1 kinase assay, 1 µmol/L single concentration, ref DOI: 10.1371/journal.pone.0092146
[32] = kinase EPHA7, 1 µmol/L single concentration, ref DOI: 10.1371/journal.pone.0092146

| Structure (SMILES) | %-inhibition CaMK2α [1, 12] | %-inhibition at 1 µmol/L, DYRK1B [2, 13] | %-inhibition, MARK2 [3, 14] | %-inhibition at 1 µmol/L, EPHA7 [4, 15] | %-inhibition at 1 µmol/L, PKCα [5, 16] | %-inhibition at 1 µmol/L, FER [6, 17] | %-inhibition ABL [7, 18] | %-inhibition at 1 µmol/L, ROCK2 [8, 19] | %-inhibition at 1 µmol/L, RSK4 [9, 20] | %-inhibition at 1 µmol/L, PEK [10, 21] | %-inhibition AMPKα2/β1/γ1 [11, 22] | also measured |
| --- | --- | --- | --- | --- | --- | --- | --- | --- | --- | --- | --- | --- |
| CC#CC(=O)N1CCC[C@H]1c1nc(-c2ccc(C(=O)Nc3ccccn3)cc2)c2c(N)nccn12 [acalabrutinib] | -3.43% | -19% | -9% | -3.54% | -17% | -2.54% | -2.81% | -2.29% | 4.21% | 8% | 3.5% |  |
| CCc1cc2c(cc1N1CCC(N3CCOCC3)CC1)C(C)(C)c1[nH]c3cc(C#N)ccc3c1C2=O [alectinib] | 0.405% | 2% | 5.66% | 1.58% | 1.48% | 66% | 5% | 4.54% | 19% | 9% | 6% |  |
| COc1cc(N2CCC(N3CCN(C)CC3)CC2)ccc1Nc1ncc(Cl)c(Nc2ccccc2P(C)(C)=O)n1 [brigatinib] |  |  |  |  |  |  |  |  |  |  |  | %-inhibition CaMK2α [1]: 86%; %-inhibition at 1 µmol/L, DYRK1B [2]: 41%; %-inhibition, MARK2 [3]: 96%; %-inhibition at 1 µmol/L, EPHA7 [4]: 21%; %-inhibition at 1 µmol/L, PKCα [5]: 15%; %-inhibition at 1 µmol/L, FER [6]: 102%; %-inhibition ABL [7]: 54%; %-inhibition at 1 µmol/L, ROCK2 [8]: 30%; %-inhibition at 1 µmol/L, RSK4 [9]: 98%; %-inhibition at 1 µmol/L, PEK [10]: 18%; %-inhibition AMPKα2/β1/γ1 [11]: 90% |
| Cc1cc(Nc2ncc(Cl)c(Nc3ccccc3S(=O)(=O)C(C)C)n2)c(OC(C)C)cc1C1CCNCC1 [ceritinib] | 15% | 11% | 4% | 4.64% | -9% | 100% | -1.61% |  | 83% | 9.5% | 40% |  |
| O=C(c1ccc(F)c(F)c1Nc1ccc(I)cc1F)N1CC(O)([C@@H]2CCCCN2)C1 [cobimetinib] | 7% | 2% | -6.58% | 1.75% | 1.54% | 4% | -4% | 3.55% | 5.52% | 5% | 9% |  |
| C[C@@H](Oc1cc(-c2cnn(C3CCNCC3)c2)cnc1N)c1c(Cl)ccc(F)c1Cl [crizotinib] |  |  |  |  |  |  |  |  |  |  |  | %-inhibition CaMK2α [1, 23]: -2.77%; %-inhibition at 1 µmol/L, DYRK1B [2, 24]: -3%; %-inhibition, MARK2 [3, 25]: 26%; %-inhibition at 1 µmol/L, PKCα [5, 26]: -8.47%; %-inhibition at 1 µmol/L, FER [6, 27]: 90%; %-inhibition at 1 µmol/L, ROCK2 [8, 28]: 4.25%; %-inhibition at 1 µmol/L, RSK4 [9, 29]: -1.58%; %-inhibition at 1 µmol/L, PEK [10, 30]: 1.1%; %-inhibition AMPKα2/β1/γ1 [11, 31]: 27% |
| CC(C)(C)c1nc(-c2cccc(NS(=O)(=O)c3c(F)cccc3F)c2F)c(-c2ccnc(N)n2)s1 [dabrafenib] |  |  |  |  |  |  |  |  |  |  |  | %-inhibition CaMK2α [1, 23]: -2.14%; %-inhibition at 1 µmol/L, DYRK1B [2, 24]: 29%; %-inhibition, MARK2 [3, 25]: 2.85%; %-inhibition at 1 µmol/L, EPHA7 [4, 32]: 13%; %-inhibition at 1 µmol/L, FER [6, 27]: 22%; %-inhibition at 1 µmol/L, ROCK2 [8, 28]: 14%; %-inhibition at 1 µmol/L, RSK4 [9, 29]: 2.2% |
| C=CC(=O)N1CCC[C@@H](n2nc(-c3ccc(Oc4ccccc4)cc3)c3c(N)ncnc32)C1 [ibrutinib] | -1.35% | 2% | 2.67% | 7% | 0.745% |  | 8% | 3.74% | 5.52% | 7.47% | 10% |  |
| CO[C@@H]1[C@H](N(C)C(=O)c2ccccc2)C[C@H]2O[C@]1(C)n1c3ccccc3c3c4c(c5c6ccccc6n2c5c31)C(=O)NC4 [midostaurin] |  |  |  | 19% | 92% | 101% | 9% | 38% |  | 11% | 90% |  |
| C=CC(=O)Nc1cc(Nc2nccc(-c3cn(C)c4ccccc34)n2)c(OC)cc1N(C)CCN(C)C [osimertinib] | 2% | 5% | 26% | 2.35% | 11% | 78% | 4.62% | 6.54% | 38% | 7% | 11% |  |
| CC(=O)Nc1cccc(-n2c(=O)n(C3CC3)c(=O)c3c(Nc4ccc(I)cc4F)n(C)c(=O)c(C)c32)c1 [trametinib] |  |  |  |  |  |  |  |  |  |  |  | %-inhibition CaMK2α [1, 23]: -1.65%; %-inhibition at 1 µmol/L, DYRK1B [2, 24]: 3.34%; %-inhibition, MARK2 [3, 25]: -6%; %-inhibition at 1 µmol/L, EPHA7 [4, 32]: -5%; %-inhibition at 1 µmol/L, PKCα [5, 26]: -5%; %-inhibition at 1 µmol/L, FER [6, 27]: 4.28%; %-inhibition ABL ([7]; ABL kinase assay, 1 µmol/L single concentration, ref DOI: 10.1371/journal.pone.0092146): -8%; %-inhibition at 1 µmol/L, ROCK2 [8, 28]: 3%; %-inhibition at 1 µmol/L, RSK4 [9, 29]: 0.208%; %-inhibition at 1 µmol/L, PEK [10, 30]: 1.13%; %-inhibition AMPKα2/β1/γ1 [11, 31]: 1.21% |
